Results as given in patent US9999616B2 (ZENITH EPIGENETICS LTD., priority 2013, dated 2018).
pIC50: −log10 of the molar value.

Legend:
hIL-17 mRNA = experiment: Inhibition of hIL-17 mRNA transcription in OKT3-stimulated peripheral blood mononuclear cells; format: cell-based; conditions: human PBMC, OKT3 stimulation 6 h, read-out: IL-17 Activity
Procedure: Human peripheral blood mononuclear cells were plated (2.0×10^5 cells per well) in a 96-well plate in 45 μL OpTimizer T Cell expansion media (Life Technologies) containing 20 ng/ml IL-2 and penicillin/streptomycin. The cells were treated with increasing concentrations of the test compound or DMSO (0.1%), and incubated at 37° C., 5% CO2 for 1 h before addition of 10× stock OKT3 antibody at 10 ug/ml in media. Triplicate wells were used for each concentration. Cells were incubated at 37° C., 5% CO2 for 6 h before the cells were harvested. At time of harvest, cells were pelleted by centrifugation at 800 rpm for 5 min. Cells were harvested using the mRNA Catcher PLUS kit according to manufacturer's instructions. The eluted mRNA was then used in a one-step quantitative real-time PCR reaction, using components of the RNA UltraSense™ One-Step Kit (Life Technologies) together with Applied Biosystems TaqMan® primer-probes for hIL-17 and Cyclophilin. Real-time PCR plates were run on a ViiA™7 real time PCR machine (Applied Biosystems), data was analyzed, normalizing the Ct values for hIL-17 to an internal control, prior to determining the fold induction of each unknown sample, relative to the control.

hIL-6 mRNA = experiment: Inhibition of hIL-6 mRNA transcription in LPS-stimulated U937 macrophages; format: cell-based, Human; conditions: Homo sapiens, U-937, PMA-differentiated U937 cells, 1 h pretreatment, LPS 3 h, read-out: IL-6 activity
In short: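 PMA-differentiated U937 macrophages (60 ng/mL PMA, 3 days) pretreated 1 h with compound in 0.1% DMSO, then stimulated with 1 ug/mL E. coli LPS for 3 h at 37° C. IL-6 mRNA quantified by one-step TaqMan qRT-PCR, normalized to cyclophilin; fold expression relative to control, triplicate wells.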

[1] = system: c-myc in Human AML MV4-11 cells; experiment: Inhibition of cMYC expression (mRNA, real-time PCR) in MV4-11 cells; format: cell-based; conditions: 3 h treatment, cMYC mRNA by real-time PCR
In short: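 MV4-11 cells in IMDM with 10% FBS were treated with increasing compound concentrations (DMSO 0.1%) for 3 h at 37 °C, in triplicate. Isolated mRNA was quantified by one-step TaqMan RT-qPCR, cMYC Ct normalized to cyclophilin, and fold expression given relative to DMSO control.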

hApoA-1 mRNA = experiment: Up-regulation of hApoA-1 mRNA transcription in Huh7 cells; format: cell-based; conditions: Homo sapiens, Huh-7, EC170 of hApoA-1 mRNA up-regulation, 48 h, read-out: ApoA-1 activity
Procedure: Huh7 cells (2.5×10^5 per well) were plated in a 96-well plate using 100 μL DMEM per well, (Gibco DMEM supplemented with penicillin/streptomycin and 10% FBS), 72 h before the addition of the compound. The cells are treated with increasing concentrations of the compound or DMSO (0.1%), and incubated at 37° C., 5% CO2 for 48 h. Spent media was removed from the Huh-7 cells and placed on ice for immediate use with the “LDH cytotoxicity assay Kit II” from Abcam. The cells remaining in the plate were rinsed with 100 μL PBS. Cells were harvested using the mRNA Catcher PLUS kit according to manufacturer's instructions. The eluted mRNA was then used in a one-step quantitative real-time PCR reaction, using components of the RNA UltraSense™ One-Step Kit (Life Technologies) together with Applied Biosystems TaqMan® primer-probes for hApoA-1 and Cyclophilin. Real-time PCR plates were run on a ViiA™7 real time PCR machine (Applied Biosystems), data was analyzed, normalizing the Ct values for hApoA-1 to an internal control, prior to determining the fold induction of each unknown sample, relative to the control.

Human AML MV-4-11 cells = experiment: Inhibition of cell proliferation in MV4-11 cells (CellTiter Aqueous One); format: cell-based; conditions: MV4-11, 72 h
In short: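 MV4-11 cells, 5×10^4 per well in IMDM with 10% FBS, were exposed to increasing compound concentrations or 0.1% DMSO for 72 h at 37 °C in triplicate. Viability was read by MTS (CellTiter Aqueous One) absorbance at 490 nm after 3-4 h. IC50 was derived from background-corrected signal relative to DMSO.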

[2] = molecular target: Brd4 bromodomain 1 (BRD4(1)) (Homo sapiens, UniProt O60885); experiment: Inhibition of tetra-acetylated histone H4 binding to Brd4 bromodomain 1, measured by FRET (HTRF); set-up: made in house; host or cells: E. coli BL21(DE3); conditions: 2 h at room temperature
In short: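 N-terminally His-tagged bromodomain (200 nM), expressed in E. coli and purified by Ni affinity and size exclusion, was incubated with biotinylated tetra-acetylated H4 peptide (25-50 nM), Eu-cryptate streptavidin and XL665 anti-His in HEPES pH 7.4 buffer with 0.2% DMSO. Reactions ran 2 h at room temperature. IC50 came from the 665/620 nm fluorescence decrease.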

Cc1noc(C)c1-c1cc(NCc2ccccc2)c2nc[nH]c2c1 [Example Compound 4] gave a pIC50 (hIL-17 mRNA) of 5.52 to 6.52, a pIC50 (hIL-6 mRNA) of 5.52 to 6.52 and a pIC50 [1] of 5.52 to 6.52. It also gave an EC170 (hApoA-1 mRNA) of 3 to 30 µM, a pIC50 (Human AML MV-4-11 cells) of 5.52 to 6.52 and a pIC50 [2] of no less than 6.52.
For Cc1noc(C)c1-c1nc(NCc2ccccc2)c2ccccc2n1 [Example Compound 5, N-benzyl-2-(3,5-dimethylisoxazol-4-yl)quinazolin-4-amine], the EC170 (hApoA-1 mRNA) was no more than 0.3 µM and the pIC50 [2] was 4.52 to 5.52.
Cc1nn(C)c(C)c1CNc1cc(-c2c(C)noc2C)cc2[nH]cnc12 [Example Compound 37, 6-(3,5-dimethyl-isoxazol-4-yl)-N-((1,3,5-trimethyl-1H-pyrazol-4-yl)methyl)-1H-benzo[d] imidazol-4-amine] gave a pIC50 (hIL-17 mRNA) of 5.52 to 6.52, a pIC50 (hIL-6 mRNA) of 5.52 to 6.52 and a pIC50 [1] of 5.52 to 6.52. It also gave an EC170 (hApoA-1 mRNA) of no more than 0.3 µM, a pIC50 (Human AML MV-4-11 cells) of 5.52 to 6.52 and a pIC50 [2] of no less than 6.52.
With Cc1noc(C)c1-c1cc(-c2cccc(C#N)c2C)c2nc[nH]c2c1 [Example Compound 57, 3-(6-(3,5-dimethyl-isoxazol-4-yl)-1H-benzo[d]imidazol-4-yl)-2-methyl-benzonitrile] the pIC50 (hIL-17 mRNA) was 5.52 to 6.52, the pIC50 (hIL-6 mRNA) was no less than 6.52 and the pIC50 [1] was no less than 6.52. It also gave an EC170 (hApoA-1 mRNA) of no more than 0.3 µM, a pIC50 (Human AML MV-4-11 cells) of no less than 6.52 and a pIC50 [2] of no less than 6.52.
Cc1nc2c(-c3cn(C)nc3C)cc(-c3c(C)noc3C)cc2[nH]1 [Example Compound 60, 4-(4-(1,3-dimethyl-1H-pyrazol-4-yl)-2-methyl-1H-benzo[d]imidazol-6-yl)-3,5-dimethyl-isoxazole] gave a pIC50 (hIL-17 mRNA) of 5.52 to 6.52, a pIC50 (hIL-6 mRNA) of no less than 6.52 and a pIC50 [1] of no less than 6.52. For the same compound, the EC170 (hApoA-1 mRNA) was no more than 0.3 µM, the pIC50 (Human AML MV-4-11 cells) was 5.52 to 6.52 and the pIC50 [2] was no less than 6.52.
Cc1nc2c(-c3ccc4sncc4c3)cc(-c3c(C)noc3C)cc2[nH]1 [Example Compound 137, 4-(4-(benzo[d]isothiazol-5-yl)-2-methyl-1H-benzo[d]imidazol-6-yl)-3,5-dimethyl isoxazole] showed a pIC50 (hIL-17 mRNA) of 5.52 to 6.52, a pIC50 (hIL-6 mRNA) of 5.52 to 6.52 and a pIC50 [1] of 5.52 to 6.52. The pIC50 (Human AML MV-4-11 cells) was 5.52 to 6.52 and the pIC50 [2] was no less than 6.52.
With Cc1noc(C)c1-c1cc(-c2c(C)noc2C)c2c(C)c[nH]c2c1 [Example Compound 140, 4,4′-(3-methyl-1H-indole-4,6-diyl)bis(3,5-dimethylisoxazole)] the pIC50 (hIL-17 mRNA) was 5.52 to 6.52, the pIC50 (hIL-6 mRNA) was no less than 6.52 and the pIC50 [1] was no less than 6.52. The pIC50 (Human AML MV-4-11 cells) was no less than 6.52 and the pIC50 [2] was no less than 6.52.
For Cc1nc2c(Nc3c(C)nn(C)c3C)cc(-c3c(C)noc3C)cc2[nH]1 [Example Compound 146, 6-(3,5-dimethyl-isoxazol-4-yl)-2-methyl-N-(1,3,5-trimethyl-1H-pyrazol-4-yl)-1H-benzo[d] imidazol-4-amine], the pIC50 (hIL-17 mRNA) was no less than 6.52, the pIC50 (hIL-6 mRNA) was no less than 6.52 and the pIC50 [1] was no less than 6.52. It also gave a pIC50 (Human AML MV-4-11 cells) of no less than 6.52 and a pIC50 [2] of no less than 6.52.
Cc1nc2c(-c3c(C)noc3C)cc(-c3c(C)cnn3C)cc2[nH]1 [Example Compound 178, 4-(6-(1,4-dimethyl-1H-pyrazol-5-yl)-2-methyl-1H-benzo[d]imidazol-4-yl)-3,5-dimethylisoxazole] gave a pIC50 (hIL-17 mRNA) of no less than 6.52, a pIC50 (hIL-6 mRNA) of 5.52 to 6.52 and a pIC50 [1] of 5.52 to 6.52. For the same compound, the pIC50 (Human AML MV-4-11 cells) was 4.52 to 5.52 and the pIC50 [2] was 5.52 to 6.52.
For Cc1noc(C)c1-c1cc(-c2c(C)noc2C)c2c(C)n[nH]c2c1 [Example Compound 179, 4,4′-(3-methyl-1H-indazole-4,6-diyl)bis(3,5-dimethylisoxazole)], the melting point was 228 to 230 °C, the pIC50 [1] was 5.52 to 6.52 and the pIC50 (Human AML MV-4-11 cells) was 5.52 to 6.52. For the same compound, the pIC50 [2] was no less than 6.52.
For Cc1noc(C)c1-c1cc(-c2c(C)nn(C)c2C)c2nc(N3CCN(C)CC3)[nH]c2c1 [Example Compound 181, 3,5-dimethyl-4-(2-(4-methylpiperazin-1-yl)-4-(1,3,5-trimethyl-1H-pyrazol-4-yl)-1H benzo[d]imidazol-6-yl)isoxazole], the melting point was 195 to 197 °C, the pIC50 (hIL-6 mRNA) was no less than 6.52 and the pIC50 [1] was no less than 6.52. The pIC50 (Human AML MV-4-11 cells) was no less than 6.52 and the pIC50 [2] was no less than 6.52.
Work on Cc1ncccc1-c1cc(-c2c(C)noc2C)cc2[nH]c(N3CCN(C)CC3)nc12 [Example Compound 183, 3,5-dimethyl-4-(2-(4-methylpiperazin-1-yl)-4-(2-methylpyridin-3-yl)-1H-benzo[d]imidazol-6-yl)isoxazole] yielded a melting point of 238 to 240 °C, a pIC50 [1] of no less than 6.52 and a pIC50 (Human AML MV-4-11 cells) of no less than 6.52. It also gave a pIC50 [2] of no less than 6.52.
For Cc1ccc(C#N)cc1-c1cc(-c2c(C)noc2C)cc2[nH]c(N3CCN(C)CC3)nc12 [Example Compound 186, 3-(6-(3,5-dimethylisoxazol-4-yl)-2-(4-methylpiperazin-1-yl)-1H-benzo[d]imidazol-4-yl)-4-methylbenzonitrile], the melting point was 133 to 135 °C, the pIC50 [1] was no less than 6.52 and the pIC50 (Human AML MV-4-11 cells) was no less than 6.52. The pIC50 [2] was no less than 6.52.
With Cc1ccc(C(N)=O)cc1-c1cc(-c2c(C)noc2C)cc2[nH]c(N3CCN(C)CC3)nc12 [Example Compound 189, 3-(6-(3,5-dimethylisoxazol-4-yl)-2-(4-methylpiperazin-1-yl)-1H-benzo[d]imidazol-4-yl)-4-methylbenzamide] the melting point was 133 to 135 °C, the pIC50 [1] was 5.52 to 6.52 and the pIC50 (Human AML MV-4-11 cells) was 5.52 to 6.52. It also gave a pIC50 [2] of no less than 6.52.
Cc1noc(C)c1-c1cc(-c2c(C)noc2C)c2nc[nH]c2c1Br [Example Compound 192, 4,4′-(7-bromo-1H-benzo[d]imidazole-4,6-diyl)bis(3,5-dimethylisoxazole)] gave a melting point of 133 to 135 °C, a pIC50 [1] of 5.52 to 6.52 and a pIC50 (Human AML MV-4-11 cells) of 4.52 to 5.52. The pIC50 [2] was no less than 6.52.
For Cc1noc(C)c1-c1cc(-c2c(C)nn(C)c2C)c2[nH]c([S+](C)[O-])nc2c1 (centres unmarked) [Example Compound 194, 3,5-dimethyl-4-(2-(methylsulfinyl)-4-(1,3,5-trimethyl-1H-pyrazol-4-yl)-1H-benzo[d]imidazol-6-yl)isoxazole], the melting point was 242 to 244 °C, the pIC50 (Human AML MV-4-11 cells) was 5.52 to 6.52 and the pIC50 [2] was no less than 6.52.
Compound Cc1noc(C)c1-c1cc(-c2c(C)nn(C)c2C)c2[nH]c(S(C)(=O)=O)nc2c1 [Example Compound 195, 3,5-dimethyl-4-(2-(methylsulfonyl)-4-(1,3,5-trimethyl-1H-pyrazol-4-yl)-1H-benzo[d]imidazol-6-yl)isoxazole] has a melting point of 254 to 256 °C, a pIC50 [1] of 5.52 to 6.52 and a pIC50 (Human AML MV-4-11 cells) of 5.52 to 6.52. For the same compound, the pIC50 [2] was no less than 6.52.
In the case of Cc1ccncc1-c1cc(-c2c(C)noc2C)cc2[nH]c(N3CCOCC3)nc12 [Example Compound 196, 4-(6-(3,5-dimethylisoxazol-4-yl)-4-(4-methylpyridin-3-yl)-1H-benzo[d]imidazol-2-yl)morpholine], the melting point was 137 to 141 °C, the pIC50 [1] was 5.52 to 6.52 and the pIC50 (Human AML MV-4-11 cells) was 5.52 to 6.52. The pIC50 [2] was 5.52 to 6.52.
Compound Cc1noc(C)c1-c1cc(-c2cccc(C#N)c2C)c2nc(N3CCN(C)CC3)[nH]c2c1 [Example Compound 202, 3-(6-(3,5-dimethylisoxazol-4-yl)-2-(4-methylpiperazin-1-yl)-1H-benzo[d]imidazol-4-yl)-2-methylbenzonitrile] has a melting point of 179 to 182 °C, a pIC50 [1] of no less than 6.52 and a pIC50 (Human AML MV-4-11 cells) of no less than 6.52. For the same compound, the pIC50 [2] was 5.52 to 6.52.
